Measured values as given in a melting point compilation (Tetko et al.; mined from patent text by program, amines drawn as free bases though some values may be those of a salt).

melting point [°C] | SMILES
257 to 259 | O=C1NC(=O)C2(N1)C(=O)N(Cc1ccc(Cl)c(Cl)c1)c1ccc(Cl)cc12 (stereo not given)
295 to 296 | Cc1[nH]c(-c2ccccc2)c2nc[nH]c(=O)c12
70 to 71 | CCOC(=O)c1ccc(OCCCc2ccc(OC)c(OC)c2)cc1
138 to 139 | CCCN(CCC)C(=O)Cn1c(-c2ccc(C(F)(F)F)cc2)nc2cccnc21
98 to 110 | COc1cccc(Cn2c(=O)c3c(N4CCN(C)CC4)cc(Cl)cc3n(Cc3ccccc3)c2=O)c1
114 | COCCOc1ccc2ccc(NC(=O)c3ccc(OC)cc3)nc2n1
> 250 | Cn1c2c(cnc3c(N)cccc32)c(=O)n1C(=O)OC(C)(C)C
220 | Cc1c(OCc2ccccc2)ccc2c(O)c(C(=O)Nc3cccc(F)c3)c(=O)oc12
255 to 257 | COc1cc(C(F)(F)F)ccc1-c1ccc2c(c1)S(=O)(=O)NC(C1CCCCC1)N2 (stereo not given)
116 to 118 | COC(=O)c1ccc(OS(N)(=O)=O)cc1
154 to 157 | Cn1nnnc1SCCCC(=O)c1ccc(C(=O)O)o1
172 to 174 | Cn1c(C(F)(F)F)cc(=O)n(-c2cc(C=O)c(Cl)cc2F)c1=O
110 to 111 | COC(=O)C=Cc1ccc(OCCN(C)c2ccccn2)c(F)c1
125 to 129 | Cn1cc(C(F)(F)F)ccc1=O
133 to 135 | COc1ccc(C2=NN(C(c3ccccc3)c3ccccc3)C(=O)[C@H]3CCCC[C@@H]23)cc1OC (relative stereo)
206 to 207 | Nc1c2c(nc3ccccc13)CCc1cn(Cc3ccccc3)nc1-2
140 to 141 | CC(C)(C)OC(=O)NN(C(=O)OC(C)(C)C)c1ccc(OCC(F)(F)F)cc1
241 to 243 | Fc1ccc2c(c1F)C(C#CC1CC1)(C(F)(F)F)NC(=S)N2 (racemic)
139 to 140 | O=CN(O)C(CCCO)CS(=O)(=O)c1ccc(-c2ccc(C(F)(F)F)cc2)cc1 (stereo not given)
126 to 127 | CCCCCCCCCc1c(C(=O)O)sc2cc(Br)ccc12
189 to 191 | NC(Cc1cccc2ccccc12)(C(=O)O)C1CC(C(=O)O)C1 (stereo not given)
162 to 165 | O=C1c2cc(S(=O)(=O)N3CCOCC3)ccc2SC12CC2
234 to 237 | CC(=O)Nc1ccc(-c2c(NC(C)=O)n(C)c3ccccc23)cc1
203 | Clc1cccc2c1sc1ncnn12
103 | COc1ccc2cc(CCl)c(CCl)cc2c1Cl
91 to 93 | Cc1cccc(-c2[nH]c(C(C)C)nc2-c2cccc(-c3ccc(C(F)(F)F)cc3)c2)n1
322 to 324 | Cc1cc2c(=O)[nH][nH]c(=O)c2n1Cc1ccccc1

melting point [°C] | SMILES
50 | CCOC(=O)C(C)(C)Oc1cccc(Cc2ccc(C(F)(F)F)cc2)c1
128 to 129 | COC(=O)c1ccc(-n2cccc2)cc1
127 | NS(=O)(=O)Cc1ccccc1OC(F)(F)F
300 | CC(C(=O)O)c1ccc2nc(N)[nH]c2c1 (stereo not given)
91 to 95 | CNC(=O)N1CCN(CC(O)COc2ccccc2)CC1 (stereo not given)
117 | COc1ccc(NC=O)c(COC=O)c1
194 to 195 | COc1ccc(CCN2CCC(NC(=O)c3ccccc3)CC2)cc1OC
138 | N#Cc1ccc2ccc(=O)n(CCN3CCC(N)CC3)c2c1
127 to 129 | O=C(NCCCn1ccnc1)c1ccoc1
102 to 103 | COc1cc(C)c(O)c2ccccc12
148 to 150 | CSCCC(C)NC(=O)c1c(I)cccc1C(=O)O (stereo not given)
91 to 92 | CN(C)CCC(c1ccncc1)S(=O)(=O)c1ccc(Cl)cc1 (stereo not given)
103 to 106 | COC(=O)c1ccc2cc(C(C)n3ccnc3)ccc2c1 (stereo not given)
257 to 258 | NC(=O)c1cc2c(C=Cc3ccccc3)cncc2s1
171 to 172 | COc1cc(OC)nc(NC(=O)NS(=O)(=O)c2c3c(Cl)cccc3nn2C)n1
270 to 273 | O=C(Nc1nc(-c2ccco2)c(C(=O)c2ccnc(N3CCOCC3)c2)s1)c1ccncc1
16 to 17 | COc1cc(OC)nc(OC(C(=O)O)C(OC)(c2ccccc2)c2ccccc2)n1 (stereo not given)
180 to 182 | Nc1c2c(nc3ccccc13)CCC2
166 to 167 | O=C1NCc2ccc(OCCCCN3CCN(c4cccc(Cl)c4Cl)CC3)nc2N1
130 to 132 | CC(C)(C)c1csc(NC(=O)Nc2ccc(N3CCN(C(=O)Nc4ccc(OCCO)cc4C(F)(F)F)CC3)cc2)n1
210 to 213 | CC(=O)Nc1cc(Oc2ccc3c(C(=O)Nc4ccc(CN5CCN(C(C)C)CC5)c(C(F)(F)F)c4)cccc3c2)ncn1
148 to 149 | CC(=O)OC(C)c1ccc2occ(C#N)c(=O)c2c1 (stereo not given)
109 to 110 | Cc1cc(-c2ccc(S(C)(=O)=O)cc2)n(-c2ccc(F)cc2)c1F
216 to 217 | CC(C)c1cc(C(=O)Nc2ccc(C(=O)O)nc2)sc1C(C)C
173 to 174 | CC(=O)c1ccc(SC(=O)N(C)C)cc1OCC(=O)O
81 to 83 | COc1ccc(CCN2CCC(NC(=O)C34CC5CC(CC(C5)C3)C4)C2)cc1 (stereo not given)
122 to 126 | COc1ccc(Cn2c(N)c(C#N)c3c2CCCC3)cc1

The remaining lines, values behind:

SMILES | melting point [°C]
COc1ccc(-c2ccc3c(c2)c2ccc(-c4ccc(OC)cc4)nc2n3S(=O)(=O)c2ccccc2)cc1 | 206 to 208
Cc1nc(N2CCN(C)CC2)nc(N)c1-c1cc(Cl)cc(Cl)c1 | 164 to 166
COc1ccc(CCNC(=O)CCc2ccccc2C(=O)NCCc2ccccc2)cc1OC | 122 to 123
Cc1c(NC(=O)c2ccc(-c3ccc(F)cc3)cc2)ccc2cc(CN3C(C)CCCC3C)cnc12 (stereo not given) | 167 to 168
O=C(c1ccc(Nc2ccnc3cc(Cl)ccc23)cc1)N1CCNCC1 | 248 to 250
CN(C)C1(c2ccccc2)CCC(CNC(=O)NCCc2c[nH]c3ccccc23)CC1 (stereo not given) | 159 to 163
O=C(Nc1ccc(CN2C(=O)C3CCCC3N(C(=O)CN3C(=O)c4ccccc4C3=O)c3ccccc32)cc1)Oc1ccccc1 (stereo not given) | 185 to 187
O=C(NCCCCCCCNC(=O)c1ccc2c(c1)OCO2)c1ccc2c(c1)OCO2 | 151 to 152
Cc1ccc(-c2nnc(N3CCC(C(N)=O)CC3)nc2-c2ccc(C)cc2)cc1 | 222 to 224
COC(=O)C(=O)NCCCCCC1CCSS1 (stereo not given) | 42 to 43
CCCC(=O)C(=CNc1ccc(OC(=O)c2ccccc2)cc1OC)C(=O)OCC | 85 to 87
CCCCCCCCCCCCOC(=O)c1cc(C(C)(C)C)c(OC(=O)c2cc(C(C)(C)C)c(O)c(C(C)(C)C)c2)c(C(C)(C)C)c1 | 53 to 56
COc1ccc(NC(=O)Nc2ccc(Cl)c(Cl)c2)cc1NC(=S)Nc1ccc(Cl)c([N+](=O)[O-])c1 | 162 to 170
COC1CCC2C3CCC4CC(=O)C=CC4(C)C3CCC12C (stereo not given) | 115 to 117
N#CC1=C(C2CCCCCC2)Nc2n[nH]cc2C1c1cccc(C#N)c1Br (stereo not given) | 252
COc1ccc(OCCCCCCc2c(C)n[nH]c2C)c(Cl)c1 | 150 to 151
NC(=O)c1nnn(Cc2cc(Br)cc(C(Cl)=C(Cl)Cl)c2)c1N | 175 to 177
CCCCCc1c(C(C)C)nc(C(C)C)c(CO)c1-c1cccc(OC)c1 | 65 to 66
COc1cccc(Cc2ccc(-c3c[nH]nc3N)cc2)c1 | 118 to 120
Nc1ncnc2c1ncn2[C@@H]1O[C@H](CSCCO)[C@@H](O)[C@H]1O | 198 to 201
CCCCCCCCC1CC1C(N)=O (stereo not given) | 109 to 110
O=c1[nH]c(=O)n(CCCCN2CCC(OC(c3ccccc3)c3ccccc3)CC2)c2cc([N+](=O)[O-])ccc12 | 214 to 215
Nc1nc2c(c(=O)[nH]1)S[C@H](CCc1ccc(C(=O)O)s1)CN2 | 283 to 285

SMILES | melting point [°C]
CC/C(=C\CCC(O)(CC)CC)c1ccc(CCc2ccc(CO)c(CO)c2)s1 | 77
COc1cccc2c1S(=O)(=O)c1ccccc1C2(CCOS(C)(=O)=O)CCOS(C)(=O)=O | 200 to 202
COc1ccc2c(c1)c1c(n2Cc2ccccc2)CCCC1C(=O)N1CCN(c2ccccc2)CC1 (stereo not given) | 142 to 143
CC(=O)OC1CSC(Oc2cncc(-c3ccc(C)c(F)c3)c2)C(OC(C)=O)C1OC(C)=O (stereo not given) | 159
COc1cc(CC(=O)Nc2nn(-c3ccccc3)cc2C=O)ccc1OCc1nc(-c2ccccc2)oc1C | 156 to 158
COCCOCCNc1ncnc2c1cnn2-c1cc(C)cc(C)c1 | 90.4
COc1cc2c(cc1OC)C(C)=[N+]([O-])C(c1cccs1)N2 (stereo not given) | 180 to 185
Cc1ncccc1-c1ccc(OC2SCC(O)C(O)C2O)cn1 (stereo not given) | 167 to 168
Cc1ccccc1CNc1ncnc2c1ncn2C1OC(CO)C(O)C1O (stereo not given) | 162 to 164
CCOCCc1cc(C)c(OCCN2C(C)C(Br)=C(C(N)=O)N2C)c(C)c1 (stereo not given) | 112 to 114
CCOC(=O)c1cc(C)c(OCCCc2cc(C)no2)c(C)c1 | 49 to 50
CCCCN[C@@H]1CN(CC)C[C@H]1O (relative stereo) | 57.5 to 59
CCc1c(-c2ccc(OC)cc2)c2c(C(=O)N(C)CCN(C)C)c(C(=O)O)c3cc(OC)cc1n32 | 221 to 223
CCOC(=O)C1NCCN(C(=O)OC(C)(C)C)C1=O (stereo not given) | 86 to 87
N#CCN1CCC(OC(c2ccccc2)c2ccccc2)CC1 | 78 to 80
Oc1cc2c(cc1O)OCC(c1ccc3c(c1)OCO3)C2 (stereo not given) | 163 to 164
O=C1N(Cc2cc3ccccc3o2)c2ccccc2C12COc1cc3c(cc12)OCO3 (stereo not given) | 167 to 168
COCCc1sc2ncnc(N)c2c1-c1ccc(NC(=O)Cc2cccc(C)c2)cc1 | 200 to 202
CCSC(N)=C(C#N)C(N)=S | 200 to 201
C=C(C)C(=O)NCCC#N | 46 to 48
COCc1cc(-c2ncc3[nH]c4ccc(Cl)c(Cc5ccc(Cl)cc5)c4c3c2COC)no1 | 198 to 200
COc1cc(CO)ccc1OCc1nc(-c2cccc(C#N)c2)oc1C | 113 to 115
CCCC1=C(C#N)C(c2ccccc2Cl)c2c(n[nH]c2C)N1 (stereo not given) | 260
